Experiment [1] deals with T1, Myeloperoxidase (Homo sapiens, UniProt P05164).
T1 sequence (P05164 whole entry): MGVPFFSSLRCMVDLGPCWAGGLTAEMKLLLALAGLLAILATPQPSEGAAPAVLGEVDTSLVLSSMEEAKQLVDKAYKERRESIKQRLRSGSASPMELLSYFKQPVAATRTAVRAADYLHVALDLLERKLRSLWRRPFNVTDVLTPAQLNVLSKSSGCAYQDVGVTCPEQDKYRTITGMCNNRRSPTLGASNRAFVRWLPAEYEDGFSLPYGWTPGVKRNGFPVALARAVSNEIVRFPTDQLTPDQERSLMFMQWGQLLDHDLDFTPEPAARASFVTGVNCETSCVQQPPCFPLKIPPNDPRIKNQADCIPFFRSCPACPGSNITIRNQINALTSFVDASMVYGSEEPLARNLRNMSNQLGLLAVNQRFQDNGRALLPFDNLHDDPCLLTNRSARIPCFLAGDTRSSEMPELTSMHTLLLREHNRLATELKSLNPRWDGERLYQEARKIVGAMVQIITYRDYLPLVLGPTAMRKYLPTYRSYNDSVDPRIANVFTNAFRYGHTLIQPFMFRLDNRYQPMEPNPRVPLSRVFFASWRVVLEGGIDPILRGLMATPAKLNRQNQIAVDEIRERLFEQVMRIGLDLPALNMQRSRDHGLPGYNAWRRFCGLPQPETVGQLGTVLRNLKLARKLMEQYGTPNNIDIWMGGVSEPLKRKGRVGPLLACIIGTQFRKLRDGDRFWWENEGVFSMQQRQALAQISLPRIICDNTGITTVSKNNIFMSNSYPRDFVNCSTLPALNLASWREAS
Nature of the experiment: Inhibition of MPO in human neutrophils using H2O2 as substrate measured after 5 mins.

Experiment [2] has as its target T1, Myeloperoxidase. Nature of the experiment: Inhibition of MPO (unknown origin) using H2O2 as substrate.
The target in experiment [3] is T1, Myeloperoxidase. Nature of the experiment: Inhibition of MPO (unknown origin).
In experiment [4] the target is T2, Myeloperoxidase (Homo sapiens) (UniProt P05164).
T2 sequence (whole entry): T1 sequence (P05164 whole entry)
Nature of the experiment: Inhibition of MPO in human neutrophils at 10'4 M using H2O2 as substrate measured for 30 secs in presence of o-dianisidine hydrochloride by spectrophotometric method relative to control.

Experiment [5] has as its target T2, Myeloperoxidase (Homo sapiens). The experiment is described as follows: Inhibition of MPO in human neutrophils assessed as reduction in PMA-stimulated HOCl production at 1 uM relative to control.

This passage reports IC50 and inhibition results from ChEMBL document CHEMBL4308885, “The development of myeloperoxidase inhibitors” (Bioorg Med Chem Lett, 2019).

As usually defined, the IC50 is the point on the concentration scale where inhibition reaches its midpoint. A lower IC50 goes with greater potency. In general, inhibition refers to how much of the control response was suppressed.

Consider `NNC(=O)c1ccc(O)cc1`, for which the IC50 in experiment [1] came out at 2000 nM.
Turning to `N[C@@H](Cc1c[nH]c2ccccc12)C(=O)O` [TRYPTOPHAN], the IC50 in experiment [2] is 2250 nM.
`CC(C)OCCn1c(=S)[nH]c(=O)c2[nH]ccc21` registered an IC50 in experiment [3] of 630 nM.
Turning to `O=c1c(O)c(-c2ccc(O)c(O)c2)oc2cc(O)cc(O)c12`, in experiment [4], the inhibition was 100%.
With `O=c1[nH]c(=S)n(C[C@H]2CCCO2)c2nc[nH]c12`, the inhibition in experiment [5] amounted to 90%.
`Nc1ccc(S(=O)(=O)c2ccc(N)cc2)cc1` [DAPSONE] yielded an IC50 in experiment [3] of 420 nM.
The same measure, in the same setting: next, `CC(=O)Oc1ccccc1C(=O)O` [ASPIRIN]: 200000 nM.
`COc1ccc2[nH]cc(CCNC(C)=O)c2c1` [MELATONIN]: the IC50 in experiment [2] is 3000 nM.
